Laboratory results as given in ChEMBL document CHEMBL4304774, “Bisubstrate Inhibitors of Nicotinamide N-Methyltransferase (NNMT) with Enhanced Activity” (J Med Chem, 2019).
pIC50: −log10 of the molar value. Calls of active or inactive are those of the source. The rule behind the calls is not given here.

These compounds were tested on HSC-2 (assay: Antiproliferative activity against human HSC2 cells assessed as reduction in cell viability at 10 uM measured after 48 hrs by MTT assay relative to control).
Assay type: functional
`Nc1ncnc2c1ncn2[C@@H]1O[C@H](CN(CC[C@H](N)C(=O)O)Cc2ccc3ccccc3c2)[C@@H](O)[C@H]1O` showed an Activity of 20%.

These compounds were tested on HSC-2 (assay: Antiproliferative activity against human HSC2 cells assessed as reduction in cell viability at 100 uM measured after 48 hrs by MTT assay relative to control).
Assay type: functional
In the case of `Nc1ncnc2c1ncn2[C@@H]1O[C@H](CN(CC[C@H](N)C(=O)O)Cc2ccc3ccccc3c2)[C@@H](O)[C@H]1O`, the Activity was 27%.

The compounds below were run against T1, Nicotinamide N-methyltransferase (Homo sapiens, UniProt P40261) (assay: Inhibition of wild-type human full length NNMT expressed in Escherichia coli BL21(DE3) cells assessed as reduction in 1-methyl-nicotinamide formation pre-incubated for 10 mins followed by AdoMet and nicotinamide addition measured after 30 mins by UHP-HILIC/Q-TOF-MS analysis).
T1 sequence (P40261 whole entry): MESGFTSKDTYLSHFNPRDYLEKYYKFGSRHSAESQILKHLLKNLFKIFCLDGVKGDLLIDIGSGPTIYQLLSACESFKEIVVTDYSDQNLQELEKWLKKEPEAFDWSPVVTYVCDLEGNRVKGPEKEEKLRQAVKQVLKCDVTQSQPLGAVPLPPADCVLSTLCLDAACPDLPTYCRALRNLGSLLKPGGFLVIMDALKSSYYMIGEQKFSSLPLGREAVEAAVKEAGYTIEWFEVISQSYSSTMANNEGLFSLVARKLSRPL
`Nc1ncnc2c1ncn2[C@@H]1O[C@H](C[C@@H](N)CC[C@H](N)C(=O)O)[C@@H](O)[C@H]1O` [SINEFUNGIN] gave a pIC50 of 4.90.
Compound `Nc1ncnc2c1ncn2[C@@H]1O[C@H](CN(CCCCC(=O)O)Cc2ccc3ccccc3c2)[C@@H](O)[C@H]1O` has a pIC50 of under 3.60.
For `Nc1ncnc2c1ncn2[C@@H]1O[C@H](CN(CCCCC(=O)O)Cc2cccc(C(=O)O)c2)[C@@H](O)[C@H]1O`, the pIC50 was under 3.60.
`NC(=O)CCCN(Cc1cccc(C(=O)O)c1)C[C@H]1O[C@@H](n2cnc3c(N)ncnc32)[C@H](O)[C@@H]1O` was tested, and the pIC50 was under 3.60.
In the case of `NC(=O)CCCN(Cc1cccc(C(N)=O)c1)C[C@H]1O[C@@H](n2cnc3c(N)ncnc32)[C@H](O)[C@@H]1O`, the pIC50 was under 3.60.
Compound `CC(C)N(Cc1cccc(C(N)=O)c1)C[C@H]1O[C@@H](n2cnc3c(N)ncnc32)[C@H](O)[C@@H]1O` has a pIC50 of under 3.60.
For `Nc1ncnc2c1ncn2[C@@H]1O[C@H](CSCC[C@H](N)C(=O)O)[C@@H](O)[C@H]1O` [S-ADENOSYLHOMOCYSTEINE], the pIC50 was 4.45.
With `COC(=O)c1cccc(CN(CCCC(N)=O)C[C@H]2O[C@@H](n3cnc4c(N)ncnc43)[C@H](O)[C@@H]2O)c1` the pIC50 was under 3.60.
With `COC(=O)c1cccc(CN(CCCC(=O)O)C[C@H]2O[C@@H](n3cnc4c(N)ncnc43)[C@H](O)[C@@H]2O)c1` the pIC50 was under 3.60.
Compound `NC(=O)c1cccc(CCN(CCC[C@H](N)C(=O)O)C[C@H]2O[C@@H](n3cnc4c(N)ncnc43)[C@H](O)[C@@H]2O)c1` has a pIC50 of 5.36.
In the case of `COC(=O)c1cccc(CN(CCCCC(N)=O)C[C@H]2O[C@@H](n3cnc4c(N)ncnc43)[C@H](O)[C@@H]2O)c1`, the pIC50 was under 3.60.
`NC(=O)c1cccc(CN(CCCC(=O)O)C[C@H]2O[C@@H](n3cnc4c(N)ncnc43)[C@H](O)[C@@H]2O)c1` gave a pIC50 of under 3.60.
`NC(=O)CCCN(Cc1ccc2ccccc2c1)C[C@H]1O[C@@H](n2cnc3c(N)ncnc32)[C@H](O)[C@@H]1O` showed a pIC50 of 3.95.
`CC(C)N(Cc1cccc(C(=O)O)c1)C[C@H]1O[C@@H](n2cnc3c(N)ncnc32)[C@H](O)[C@@H]1O` gave a pIC50 of under 3.60.
In the case of `NC(=O)c1cccc(CN(CCCCC(=O)O)C[C@H]2O[C@@H](n3cnc4c(N)ncnc43)[C@H](O)[C@@H]2O)c1`, the pIC50 was under 3.60.
For `Nc1ncnc2c1ncn2[C@@H]1O[C@H](CN(CCCC(=O)O)Cc2ccc3ccccc3c2)[C@@H](O)[C@H]1O`, the pIC50 was under 3.60.
`COC(=O)c1cccc(CN(C[C@H]2O[C@@H](n3cnc4c(N)ncnc43)[C@H](O)[C@@H]2O)C(C)C)c1` showed a pIC50 of under 3.60.
`COC(=O)c1cccc(CN(CCCCC(=O)O)C[C@H]2O[C@@H](n3cnc4c(N)ncnc43)[C@H](O)[C@@H]2O)c1` showed a pIC50 of under 3.60.
For `Nc1ncnc2c1ncn2[C@@H]1O[C@H](CN(CCCC(=O)O)Cc2cccc(C(=O)O)c2)[C@@H](O)[C@H]1O`, the pIC50 was under 3.60.
For `NC(=O)CCCCN(Cc1cccc(C(N)=O)c1)C[C@H]1O[C@@H](n2cnc3c(N)ncnc32)[C@H](O)[C@@H]1O`, the pIC50 was under 3.60.
`NC(=O)CCCCN(Cc1cccc(C(=O)O)c1)C[C@H]1O[C@@H](n2cnc3c(N)ncnc32)[C@H](O)[C@@H]1O` showed a pIC50 of under 3.60.
`Nc1ncnc2c1ncn2[C@@H]1O[C@H](CN(CCC[C@H](N)C(=O)O)Cc2ccc3ccccc3c2)[C@@H](O)[C@H]1O` gave a pIC50 of under 3.60.
In the case of `CC(C)N(Cc1ccc2ccccc2c1)C[C@H]1O[C@@H](n2cnc3c(N)ncnc32)[C@H](O)[C@@H]1O`, the pIC50 was 3.89.

The compounds below were run on HSC-2 (assay: Antiproliferative activity against human HSC2 cells assessed as reduction in cell viability at 50 uM measured after 48 hrs by MTT assay relative to control).
Assay type: functional
`Nc1ncnc2c1ncn2[C@@H]1O[C@H](CN(CC[C@H](N)C(=O)O)Cc2ccc3ccccc3c2)[C@@H](O)[C@H]1O` was tested, and the Activity was 21%.

Each compound was assayed on HSC-2 (assay: Antiproliferative activity against human HSC2 cells assessed as reduction in cell viability at 100 uM measured after 72 hrs by MTT assay relative to control).
Assay type: functional
For `Nc1ncnc2c1ncn2[C@@H]1O[C@H](CN(CC[C@H](N)C(=O)O)Cc2ccc3ccccc3c2)[C@@H](O)[C@H]1O`, the Activity was 44%.

The compounds below were run on HSC-2 (assay: Antiproliferative activity against human HSC2 cells assessed as reduction in cell viability at 1 to 100 uM measured up to 72 hrs by MTT assay).
Assay type: functional, cell-based
With `NC(=O)c1cccc(CCN(CCC[C@H](N)C(=O)O)C[C@H]2O[C@@H](n3cnc4c(N)ncnc43)[C@H](O)[C@@H]2O)c1` the Activity was “inactive”.
For `Nc1ncnc2c1ncn2[C@@H]1O[C@H](CN(CCC[C@H](N)C(=O)O)Cc2ccc3ccccc3c2)[C@@H](O)[C@H]1O`, the Activity was “inactive”.
With `NC(=O)c1cccc(CN(CC[C@H](N)C(=O)O)C[C@H]2O[C@@H](n3cnc4c(N)ncnc43)[C@H](O)[C@@H]2O)c1` the Activity was “inactive”.
